Data reported in publication PMC12040169 (PLOS Biology, 2025).

Test: in vitro
Settings: human, hela cells, % viability

| SMILES | viability at 28.5 h, 10 µM [%] |
| --- | --- |
| CCc1nc2ccc(C(=O)N3CCCCC3)cn2c1N(CC)Cc1ccc2c(c1)OCCO2 [CBK146903] | 100 |
| CC(=O)c1ccc(NC(=O)N(C)c2c(C)nc3ccc(C(=O)N4CCN(C(=O)c5ccco5)CC4)cn23)cc1 [CBK146930] | 92.8 |
| CCc1nc2ccc(C(=O)Nc3ccc(C(N)=O)cc3)cn2c1N(CC)Cc1cccc(Br)c1 [CBK146960] | 92.9 |
| CCc1nc2ccc(C(=O)N(C)CCN(C)C)cn2c1N(CC)Cc1cccc(Br)c1 [CBK146962] | 93.1 |
| CCc1nc2ccc(C(=O)Nc3ccc(NC(C)=O)cc3)cn2c1N(CC)Cc1ccc(OC)c(OC)c1 [CBK146994] | 97.8 |
| CCc1nc2ccc(C(=O)Nc3ccc(OC)c(OC)c3)cn2c1N(CC)C(=O)NCCc1ccccc1 [CBK147035] | 97.1 |
| CCCCC(=O)N(C)c1c(C)nc2ccc(C(=O)NCc3cccs3)cn12 [CBK147073] | 103 |
| CC(=O)Nc1ccc(CN(C)c2c(C)nc3ccc(C(=O)N(C)CCN(C)C)cn23)cc1 [CBK147107] | 109 |
| Cc1nc2c(OCCN3C(=O)c4ccccc4C3=O)cccn2c1N(C)C(=O)C1CCCCC1 [CBK147157] | 95 |
| CCCCN(C)c1c(C)nc2c(OCC(=O)c3ccc(F)cc3)cccn12 [CBK147172] | 93.1 |
| CCCCN(C)c1c(C)nc2c(OCC3CCCCO3)cccn12 (centres unmarked) [CBK147180] | 103 |
| CCCCN(C)c1c(C)nc2c(OCc3ccc(S(=O)(=O)N(C)C)cc3)cccn12 [CBK147189] | 96.2 |
| CCCCN(C)c1c(C)nc2c(Oc3ncccn3)cccn12 [CBK147190] | 90.9 |
| CCCCN(C)c1c(C)nc2c(Oc3nc4ccccc4s3)cccn12 [CBK147192] | 93.4 |
| Cc1nc2c(OCCOc3ccc(F)cc3)cccn2c1N(C)C(=O)CCC1CCCC1 [CBK147198] | 103 |
| Cc1ccccc1COc1cccn2c(N(C)CC3CCCO3)c(C)nc12 (centres unmarked) [CBK147231] | 115 |
| Cc1nc2c(OCCOc3ccccc3)cccn2c1N(C)CC1CC1 [CBK147272] | 96.8 |
| Cc1nc2c(OCc3ccc(F)c(F)c3)cccn2c1N(C)CC1CC1 [CBK147276] | 91.9 |
| CCN(C)c1c(C)nc2c(OCc3cccc(Cl)c3)cccn12 [CBK147310] | 100 |
| CCN(C)c1c(C)nc2c(OCC(=O)N(C)C)cccn12 [CBK147316] | 107 |
| Cc1nc2c(OCc3ccc(C#N)cc3)cccn2c1N(C)Cc1cccs1 [CBK147336] | 92 |

| SMILES | viability at 28.5 h, 10 µM [%] |
| --- | --- |
| CC(=O)Nc1ccc(CN(C)c2c(C)nc3c(OCC4CCCCC4)cccn23)cc1 [CBK147379] | 93.5 |
| CC(=O)Nc1ccc(CN(C)c2c(C)nc3c(OCc4ccc(C(F)(F)F)cc4)cccn23)cc1 [CBK147380] | 94.5 |
| COc1ccc(CN(C)c2c(C)nc3c(OCCCN(C)S(C)(=O)=O)cccn23)cc1 [CBK147468] | 90 |
| COc1ccc(CN(C)c2c(C)nc3c(OCC(=O)N4CCOCC4)cccn23)cc1 [CBK147469] | 102 |
| CCc1nc2c(OCc3ccc(Cl)cc3)cccn2c1N(C=O)CC(=O)N(C)C [CBK147518] | 96.4 |
| CCCCN(C=O)c1c(CC)nc2c(OCCOc3ccc(F)cc3)cccn12 [CBK147631] | 92.7 |
| CCCCN(C=O)c1c(CC)nc2c(OCc3ccccc3C)cccn12 [CBK147639] | 92.2 |
| CCc1nc2c(OCCC3CCCCC3)cccn2c1N(C)C(=O)CC(C)C [CBK147671] | 94.8 |
| CCc1nc2c(OCCOC)cccn2c1N(C)C(=O)c1ccccc1F [CBK147722] | 91.3 |
| CCc1nc2c(OCc3ccccc3OC)cccn2c1N(C)C(=O)C(C)C [CBK147763] | 97 |
| CCCCC(=O)N(C)c1c(CC)nc2c(OCCn3cccc3)cccn12 [CBK147785] | 102 |
| CCNC(=O)N(C)c1c(CC)nc2c(OCC3CCCCC3)cccn12 [CBK147795] | 108 |
| CCc1nc2c(Oc3nc4ccccc4s3)cccn2c1N(C=O)Cc1ccc(OC)cc1 [CBK147819] | 107 |
| CCc1nc2c(OCCOC)cccn2c1N(CCOC)C(C)=O [CBK147845] | 97.4 |
| CCc1nc2c(OCc3ccc(S(C)(=O)=O)cc3)cccn2c1N(CCOC)C(C)=O [CBK147846] | 87.4 |
| O=C(NC(c1ccc(-c2ccccc2)cc1)c1cnccn1)C1CCN(CCCN2C(=O)C3CCCCC3C2=O)CC1 (centres unmarked) [CBK147856] | 97.3 |
| CCc1nc2c(OCC3CCCCO3)cccn2c1N(C)C(=O)c1ccc2c(c1)OCO2 (centres unmarked) [CBK147860] | 82.9 |
| CCc1nc2c(OCc3ccccc3)cccn2c1N(C)C(=O)c1ccncc1 [CBK147876] | 90 |
| Cc1nc2c(OCc3ccccc3)cccn2c1N(C)C(=O)C1CCCCC1 [CBK147884] | 96.2 |
| CCc1nc2c(OCc3ccccc3)cccn2c1N(Cc1ccc(OC)cc1)C(C)=O [CBK147887] | 89.8 |
| CCc1nc2c(OCc3ccccc3)cccn2c1N(C)C(=O)Nc1ccccc1OC [CBK147890] | 98.7 |

| SMILES | viability at 28.5 h, 10 µM [%] |
| --- | --- |
| COc1ccccc1C(NC(=O)C1CCN(CCc2c[nH]c3ccccc23)CC1)c1ccccn1 (centres unmarked) [CBK147923] | 87.8 |
| COc1ccc(OCCN2CCC(C(=O)NC(c3ccccn3)c3ccccc3OC)CC2)cc1 (centres unmarked) [CBK147938] | 86.3 |
| O=C(NC(c1ccc(Cl)cc1)c1ccsc1)C1CCN(CCOc2ccccc2)CC1 (centres unmarked) [CBK147951] | 101 |
| O=C(NC(c1ccc(Cl)cc1)c1ccsc1)C1CCN(CCc2ccc(F)cc2)CC1 (centres unmarked) [CBK147976] | 88.4 |
| O=C(NC(c1ccc(-c2ccccc2)cc1)c1cnccn1)C1CCN(CCOc2ccc3ccccc3c2)CC1 (centres unmarked) [CBK147982] | 93.6 |
| O=C(NC(c1ccc(-c2ccccc2)cc1)c1cnccn1)C1CCN(C/C=C/c2ccccc2)CC1 (centres unmarked) [CBK147984] | 104 |
| CC(C)CN1CCC(C(=O)NC(c2ccc(Cl)cc2)c2cnccn2)CC1 (centres unmarked) [CBK148026] | 96.6 |
| CC(NC(=O)C1CCN(C2Cc3ccccc3C2)CC1)c1ccccc1 (centres unmarked) [CBK148031] | 95.7 |
| CC(NC(=O)C1CCN(Cc2cccnc2)CC1)c1ccc(F)cc1 (centres unmarked) [CBK148032] | 94.4 |
| CC(NC(=O)C1CCN(Cc2ncc[nH]2)CC1)c1ccc(F)cc1 (centres unmarked) [CBK148037] | 97 |
| CC(NC(=O)C1CCN(Cc2cccs2)CC1)c1ccc(F)cc1 (centres unmarked) [CBK148041] | 101 |
| COc1cc(/C=C/CN2CCC(C(=O)NC(C)c3ccc(F)cc3)CC2)ccc1OC(C)=O (centres unmarked) [CBK148061] | 90.1 |
| COc1cc(OC)nc(C(NC(=O)C2CCN(CCN3C(=O)c4ccccc4C3=O)CC2)c2ccc(F)cc2)n1 (centres unmarked) [CBK148083] | 103 |
| CCOCCN1CCC(C(=O)NC(c2ccc(F)cc2)c2nc(OC)cc(OC)n2)CC1 (centres unmarked) [CBK148087] | 98 |
| COc1cccc(CCN2CCC(C(=O)NC(c3ccc(F)cc3)c3nc(OC)cc(OC)n3)CC2)c1 (centres unmarked) [CBK148089] | 92.2 |
| COc1cc(OC)nc(C(NC(=O)C2CCN(CCc3c[nH]c4ccccc34)CC2)c2ccccc2C)n1 (centres unmarked) [CBK148101] | 104 |
| O=C(NC(c1ccc(F)cc1)c1ccc2ccccc2n1)C1CCN(CCCN2CCOCC2)CC1 (centres unmarked) [CBK148118] | 91.8 |
| COc1cc(OC)nc(C(NC(=O)C2CCN(Cc3cccn3C)CC2)c2ccc(F)cc2)n1 (centres unmarked) [CBK148170] | 104 |
| Cn1cc(CN2CCC(C(=O)NC(c3ccc4c(c3)OCO4)c3ccccn3)CC2)c2ccccc21 (centres unmarked) [CBK148183] | 94 |
| O=C(NC(c1ccccc1)c1ccco1)C1CCN(CCN2C(=O)c3ccccc3C2=O)CC1 (centres unmarked) [CBK148297] | 120 |
| CC(C)(C)C(=O)CN1CCC(C(=O)NC(c2ccccc2)c2ccco2)CC1 (centres unmarked) [CBK148298] | 109 |

| SMILES | viability at 28.5 h, 10 µM [%] |
| --- | --- |
| Cc1ccccc1C(c1ncccc1C)N(C)C(=O)C1CCN(Cc2ccc(Cl)c(Cl)c2)CC1 (centres unmarked) [CBK148366] | 92.2 |
| Cc1cccnc1C(c1ccc(F)cc1)N(C)C(=O)C1CCN(CCc2ccc(Br)cc2)CC1 (centres unmarked) [CBK148397] | 90.5 |
| CN(CCCN1CCC(C(=O)NC(c2cccnc2)c2ccc3c(c2)OCO3)CC1)S(C)(=O)=O (centres unmarked) [CBK148505] | 93.1 |
| O=C(NC(c1ccccc1)c1ccsc1)C1CCN(C2Cc3ccccc3C2)CC1 (centres unmarked) [CBK148541] | 80 |
| CC(NC(=O)C1CCN(CCOc2ccccc2)CC1)c1ccccc1 (centres unmarked) [CBK148610] | 91.5 |
| CC(NC(=O)C1CCN(CCc2ccccc2)CC1)c1ccccc1 (centres unmarked) [CBK148612] | 99.6 |
| CC(NC(=O)C1CCN(CCOc2ccc(F)cc2)CC1)c1cccc2ccccc12 (centres unmarked) [CBK148634] | 93.6 |
| CC(NC(=O)C1CCN(CCN2C(=O)c3ccccc3C2=O)CC1)c1ccc(F)cc1 (centres unmarked) [CBK148750] | 107 |
| C=CCN1CCC(C(=O)NC(C)c2cc(OC)ccc2OC)CC1 (centres unmarked) [CBK148762] | 116 |
| COc1ccc(OC)c(C(C)NC(=O)C2CCN(CCc3c[nH]c4ccccc34)CC2)c1 (centres unmarked) [CBK148763] | 99.2 |
| COc1ccc(OC)c(C(C)NC(=O)C2CCN(CCc3cccs3)CC2)c1 (centres unmarked) [CBK148766] | 98.8 |
| COc1ccc(C(NC(=O)C2CCN(CCOc3ccc4ccccc4c3)CC2)c2ccccc2C)cn1 (centres unmarked) [CBK148792] | 73.1 |
| O=C(NCC1COc2ccccc2O1)c1ccc2[nH]ccc2c1 (centres unmarked) [CBK149054] | 91.2 |
| O=C(NCc1ccc2occc2c1)c1ccc2[nH]ccc2c1 [CBK149055] | 89.7 |
| CSCCCNC(=O)c1ccc2[nH]ccc2c1 [CBK149056] | 100 |
| CN(C)CCNC(=O)c1ccc2[nH]ccc2c1 [CBK149062] | 112 |
| O=C(NCCc1ccc(O)cc1)c1ccc2[nH]ccc2c1 [CBK149063] | 89.5 |
| COc1cc(CNC(=O)c2ccc3[nH]ccc3c2)cc(OC)c1OC [CBK149073] | 91 |
| N#Cc1ccc(CNC(=O)c2ccc3[nH]ccc3c2)cc1 [CBK149078] | 87.8 |
| O=C(Nc1ccc2[nH]c(=O)[nH]c2c1)c1ccc2[nH]ccc2c1 [CBK149083] | 97.5 |
